Tests used:
[1] = Animal toxicity bioassay: acute toxicity, intraperitoneal injection, LD50 by Litchfield and Wilkinson; type: in vivo; conditions: both sexes, mouse, in vivo, ip, white mice, observed 14 days
Procedure: (§1) Acute toxicity was studied on white mice of both sexes with weight ranging between 18-26 grams under intraperitoneal injection of 2% solution of tested compound in starch (the compound was dissolved in starch slime and injected) on the basis of 0.1 ml of solution per 10 g of the animal weight. Each dose was tested on the group of 6 animals that were observed during 14 days period.

[2] = Solubility in solvents and water
[3] = test system: human myeloma cells (ATCC CCL155); test: Cytotoxicity assay: growth inhibition of CCL155 cells, MTS/PMS readout; type: cell-based; conditions: Table 1, approximately 48 hours with test compound, concentration not given
Procedure: The anticancer activity against human myeloma of the novel compounds (as earlier reported) was realized by the following procedure which determines the inhibitory effect of test samples on the growth of human myeloma cells.
[…]
(ATCC CCL155) The CCL155 cells are grown in RPMI 1640 media+20% Fetal bovine serum+4.5 g/L glucose+10 mM HEPES+1.0 mM sodium pyruvate+1% Antibiotic/Antimycotic for approximately 48 hours at 37° C./5% CO2 in the presence of the test compound.
Growth/Non-Growth of the cells (e.g., cell density) is determined using Promega's MTS/PMS assay system. MTS (3-(4,5-dimethylthiazol-2-yl)-5-(3-carboxymethoxyphenyl)-2-(4-sulfophenyl)-2H-tetrazolium, inner salt) is an aqueous compound that is reduced to soluble formazan by the presence of NADH formed by dehydrogenases present within the CCL155 cells. The absorbance of the formazan can be measured at 490 nm and is directly proportional to the number of living cells present in the culture. PMS (Phenazine Methosulfate) is added an electron coupling reagent and greatly increases the rate of reduction.
To facilitate a full understanding of the procedure the following definitions are offered:
Test wells—wells containing test sample and Diluted CCL155 cells
Test values—absorbance of test wells
Blank wells—wells containing test sample and CCL155 media (C155-01S); used to obtain background absorbance due to test sample
Blank values—absorbance of blank wells
Negative Control—maximal cell growth; results of test samples will be expressed as a percent of the Negative Control
Positive Control—known inhibitor of CCL155 cells; used to validate assay system
Matrix—solvent that the samples are prepared/diluted in […]
Blank values will be determined for each sample to account for any color contribution due to the sample itself. […] After completion of MTS/PMS reaction blank values will be subtracted from the test value to obtain a net absorbance that will be used to calculate cell density. […]
In order to establish the accuracy of this assay a Positive Control consisting of 50 μM Methotrexate […] of the Negative Control (CCL155 cells are somewhat resistant to methotrexate) is utilized.
In order to establish the accuracy of this assay a Positive Control consisting of 50 μM Methotrexate should show less than 75% of the net absorbance of the Negative Control is utilized.

white mice = test: Animal toxicity bioassay: acute toxicity, intraperitoneal injection, LD50 by Litchfield and Wilkinson; type: in vivo; conditions: Table 1, observed 14 days
Procedure: as §1

mice = conditions: cited from earlier work
Stability in solutions = type: physicochemical; conditions: solution heated or stored for a long time; forms OF-12

| SMILES | LD50 at 14 days [1] | Solubility in DMSO, DMFA, dichloroethane, acetonitrile [2] | Solubility in water [2] | Activity (ATCC CCL155) [3] | other results |
| --- | --- | --- | --- | --- | --- |
| COC(=O)/C(=C/C(=O)c1ccccc1)N/N=C(\c1ccccc1)c1ccc(N(C)C)cc1 [OF-10, 2-{N′-[(4-Dimethylamino-phenyl)-phenyl-methylene]-hydrazino}-4-oxo-4-phenyl-but-2-enoic acid methyl ester] | > 1500 mg/kg | highly soluble | insoluble |  | Solubility in chloroform [2]: highly soluble |
| COC(=O)/C(=C/C(=O)c1ccccc1)NN=C1c2ccccc2-c2ccccc21 [1F-04, 2-(N′-Fluoren-9-ylidene-hydrazino)-4-oxo-4-phenyl-but-2-enoic acid methyl ester] | > 1000 mg/kg | highly soluble | insoluble | 93% |  |
| CCOc1ccc(/C(Cl)=C/C(=N\N=C2c3ccccc3-c3ccccc32)C(=O)OC)cc1 [3F-19, 4-Chloro-4-(4-ethoxy-phenyl)-2-(fluoren-9-ylidene-hydrazono)-but-3-enoic acid methyl ester] |  |  |  | 100% | LD50 (white mice): >200 mg/kg |
| COC(=O)C(=CC(=O)C(C)(C)C)NN=C1c2ccccc2-c2ccccc21 [OF-06, 2-(N′-Fluoren-9-ylidene-hydrazino)-5,5-dimethyl-4-oxo-hex-2-enoic acid methyl ester] | > 3000 mg/kg | highly soluble |  | 82% | LD50 (white mice): >3000 mg/kg; Solubility in ethanol, tetrachloromethane ([2]; ethanol, tetrachloromethane): slightly soluble; Solubility in hexane ([2]; hexane): insoluble |
| COC(=O)C(=CC(=O)c1ccc(Cl)cc1)NN=C1c2ccccc2-c2ccccc21 [OF-07, 4-(4-Chloro-phenyl)-2-(N′-fluoren-9-ylidene-hydrazino)-4-oxo-but-2-enoic acid methyl ester] | > 750 mg/kg | highly soluble | insoluble |  |  |
| N[C@@H](Cc1ccc(N(CCCl)CCCl)cc1)C(=O)O [Melphalan] |  |  |  |  | Toxicity: LD50 in mice (mice): 23 mg/kg |
| COC(=O)/C(=C/C(=O)c1ccccc1)N/N=C(\c1ccccc1)c1ccccc1Br [OF-09, 2-{N′-[(2-Bromo-phenyl)-phenyl-methylene]-hydrazino}-4-oxo-4-phenyl-but-2-enoic acid methyl ester] | > 5000 mg/kg | highly soluble | insoluble |  |  |
| COC(=O)/C(=C/C(=O)c1ccccc1)N/N=C(\C)c1ccc(Cl)cc1 [OF-20, 2-{N′-[1-(4-Chloro-phenyl)-ethylidene]-hydrazino}-4-oxo-4-phenyl-but-2-enoic acid methyl ester] | > 250 mg/kg | highly soluble | insoluble |  | Solubility in chloroform [2]: highly soluble |
| CCOc1ccc(C(=O)CC(O)(NN=C2c3ccccc3-c3ccccc32)C(=O)OC)cc1 (stereo not drawn) [OF-13, 4-(4-Ethoxy-phenyl)-2-(N′-fluoren-9-ylidene-hydrazino)-2-hydroxy-4-oxo-butyric acid methyl ester] | > 1500 mg/kg |  |  | 99% | Stability in solutions (Stability in solutions): not stable in solutions and decomposes quickly when the solution is heated or stored for a long time |

Source: patent publication US6686496B1, “Treatment of myeloma” (University of Central Florida, priority 2001, dated 2004)
